Three compounds from PMC5814837 (Pest Management Science, 2017) can be followed below.

The structures appear in SMILES notation. Where only a bound is given, the exact number is not on record here.

The test addresses mitochondrial succinate dehydrogenase (SDH) (Zymoseptoria tritici, UniProt F9X9V6+F9XH52+O42772, A84V). The experiment in a line: biochemical. As to conditions: IC50.
Usually IC50 stands for the concentration needed to halve the response being measured. A lower IC50 goes with inhibition by little substance. In the case of `O=C(NCCc1ncc(C(F)(F)F)cc1Cl)c1ccccc1C(F)(F)F` [Fluopyram, fluopyram], half-maximal inhibition (IC50) required 14.8 ± 1.32 µM.

`Cn1cc(C(=O)Nc2ccc(F)cc2-c2ccc(Cl)c(Cl)c2)c(C(F)F)n1` [Bixafen, bixafen] registered a half-maximal inhibitory concentration (IC50) of 0.106 ± 0.017 µM.

`Cc1cc(OC(C)C)ccc1C(=O)C(C)(C)NC(=O)c1sccc1C` [Isofetamid, N‐[1,1‐dimethyl‐2‐(4‐isopropoxy‐o‐tolyl)‐2‐oxoethyl]‐3‐methylthiophene‐2‐carboxamide] came in with an IC50 of more than 32 µM.
